Assay results taken from patent US11261136B2, “Triarylmethane compounds for controlling enzyme-induced urea decomposition” (priority 2017, dated 2022).
Read-outs that look alike come from different tables or passages of the source.

Tests used:
[1] = target: T1, jackbean urease enzyme (Canavalia ensiformis, UniProt P07374); experiment: biochemical; details: pH 5
T1 construct: purchased
Description: (§1) An aqueous solution containing 0.105 moles/L of monosodium phosphate was adjusted to a pH of 5.0 with sodium hydroxide. Suitable quantities of a solution of 3,3′,4-trihydroxysuchsone-2″-sulfonic acid were added, with stirring, to 19.0 mL of the above phosphate solution, to give a series of mixtures having the following concentrations of sulfonic acid: 100, 250, 500, 750, 1000, 2000, and 5000 ppb. Next, commercial jackbean urease enzyme solution of known concentration was added to each mixture to provide 40 units of enzyme per 50 mL of the mixture. The mixtures were allowed to stand for 5 hours in closed glass containers at 20° C., followed by the addition to each mixture of 1.00 mL of freshly prepared urea solution (2.00 moles/L), to give an overall reaction concentration of 0.100 moles/L of both urea and phosphate. These mixtures, containing phosphate, sulfonic acid, urease, and urea were deemed A mixtures.
(§2) Simultaneously, two more solutions were identically prepared, namely an enzyme-free control where both 3,3′,4-trihydroxysuchsone-2″-sulfonic acid and enzyme are omitted (mixture B), and an enzyme control where enzyme is present without any 3,3′,4-trihydroxysuchsone-2″-sulfonic acid (mixture C). Solution urea concentrations were measured immediately in each of the mixtures, and again after a 120-minute interval.
(§3) For purposes of these tests, the C mixture containing urease and urea was deemed to provide 0% inhibition, whereas the B mixture containing urea without urease was deemed to provide 100% inhibition.

[2] = target: T1, jackbean urease enzyme; experiment: Jackbean urease inhibition, Example 1 repeated with buffer at pH 7; assay type: biochemical
Description: as §1, §2, §3
Example 1 was repeated, but with the addition of a buffer to maintain a pH of 7.0 in all of the A, B, and C mixtures. The A mixtures contained the following amounts of the 3,3′,4-trihydroxysuchsone-2″-sulfonic acid: 100, 250, 500, 750, and 1000 ppb. It is known in the art that urease enzyme activity is greater and more difficult to inhibit at neutral pH, as compared with an acid pH, and that the much lower treatment levels would give less urease inhibition.

[3] = system: urease enzyme; experiment: Nitrogen volatilization of 50:50 urea:water solutions (gas trap and FIA instrument)
From the text: Various concentrations of Catechol Violet paired with polymer, were examined utilizing the gas trap and FIA instrument at Alltech (Sparta, Ill.). Treatment replicates are shown across the horizontal axis, and percent Nitrogen concentration (expressed as ammonia that has volatilized) is given in the vertical axis. For FIGS. 1, 2, 4A, and 4B, the treatments proceed in number order along the horizontal axis, moving from left to right, with the left being the lowest treatment number and the right being the highest treatment number. For FIGS. 3A and 3B, the treatments proceed as described above, with the exception of treatment 7, which is the farthest right along the horizontal axis. Briefly, the lower the amount of volatilized nitrogen, the greater the inhibition of the activity of the urease enzyme.
Each set of treatments includes:
• 1) An untreated control (50:50 urea:water, w/w). […] Concentrations and details of each treatment are given in the following paragraphs. 7.1—Three Day Results of Catechol Violet Solutions (FIG. 1)

[4] = system: urease enzyme; details: industry standard, added at 0.2% v/v of the urea solution; cited from earlier work
[5] = cited from earlier work
[6] = used with UAN; 87 trials and 487 comparisons; cited from earlier work
[7] = target: urease (Canavalia ensiformis, UniProt P07374); details: in solution; cited from earlier work
Chain of urease (P07374 whole entry, looked up): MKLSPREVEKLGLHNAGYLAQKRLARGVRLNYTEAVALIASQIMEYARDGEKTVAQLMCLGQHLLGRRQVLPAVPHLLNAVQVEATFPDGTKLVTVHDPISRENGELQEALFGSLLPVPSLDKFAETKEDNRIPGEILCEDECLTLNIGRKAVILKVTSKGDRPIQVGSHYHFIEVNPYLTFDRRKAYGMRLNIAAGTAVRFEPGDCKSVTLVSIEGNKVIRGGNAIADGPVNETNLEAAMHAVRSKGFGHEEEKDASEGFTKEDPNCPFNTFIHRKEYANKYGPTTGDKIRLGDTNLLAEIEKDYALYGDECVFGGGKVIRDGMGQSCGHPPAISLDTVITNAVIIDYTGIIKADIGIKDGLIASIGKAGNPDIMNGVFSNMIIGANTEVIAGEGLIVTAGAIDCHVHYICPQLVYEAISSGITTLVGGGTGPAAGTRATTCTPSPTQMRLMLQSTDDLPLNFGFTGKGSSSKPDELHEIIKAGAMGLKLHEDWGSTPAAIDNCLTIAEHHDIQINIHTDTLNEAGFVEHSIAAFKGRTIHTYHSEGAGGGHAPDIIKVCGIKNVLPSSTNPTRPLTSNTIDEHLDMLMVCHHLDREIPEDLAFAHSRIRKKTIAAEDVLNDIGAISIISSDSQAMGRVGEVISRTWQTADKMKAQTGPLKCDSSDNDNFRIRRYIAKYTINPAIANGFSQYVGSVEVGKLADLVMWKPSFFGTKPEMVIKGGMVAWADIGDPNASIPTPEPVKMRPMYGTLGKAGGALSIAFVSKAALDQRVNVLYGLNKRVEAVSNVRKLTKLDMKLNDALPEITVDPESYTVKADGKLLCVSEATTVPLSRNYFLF

T1 sequence (P07374 whole entry, looked up): as above

For O=C1C=C/C(=C(/c2ccc(O)c(O)c2)c2ccccc2S(=O)(=O)O)C=C1O [3,3′,4-trihydroxysuchsone-2″-sulfonic acid], the inhibition at 0.1 ppm [1] was 7%, the inhibition at 0.25 ppm [1] was 22% and the inhibition at 0.5 ppm [1] was 25%. It also gave an inhibition at 0.75 ppm [1] of 45%, an inhibition at 1 ppm [1] of 61% and an inhibition at 2 ppm [1] of 76%. The inhibition at 5 ppm [1] was 88%, the inhibition at 0.1 ppm [2] was 2% and the inhibition at 0.25 ppm [2] was 30%. The inhibition at 0.5 ppm [2] was 41%, the inhibition at 0.75 ppm [2] was 46% and the inhibition at 1 ppm [2] was 50%.

For CCCCNP(N)(N)=S [NBPT, N-(n-butyl) thiophosphoric triamide], the “urease activity and N-loss through volatilization (FIGS. 3A and 3B)” value ([3]; NBPT (Agrotain Ultra) 0.2% v/v, three and seven day test) is given as “inhibits urease activity and N-loss through volatilization”, the “7-day N-loss via volatilization (FIG. 4B)” value ([3]; after 7 days, compared to untreated urea solution) is given as “continue to limit N-loss via volatilization when compared to the untreated urea solution” and the “inhibition of N-volatilization (historical)” value [4] is given as “near-total inhibition of N-volatilization”. The “NBPT content lost on storage” value ([5]; after six months) was “over 99%”, the “NBPT content lost on storage” value ([5]; storage at 25° C. for three months) was “up to 40%” and the “average improvement in yield” value [6] was “about 1.6 bushels/acre”. For the same compound, the “trials resulting in yield losses” value [6] was “about 40%”.

In the case of O=C1C=CC(=O)C=C1 [benzoquinone], the “concentration at which effective urease inhibitors” value [7] is given as “about 1 ppm by weight”.

For Oc1ccccc1O [catechol], the “concentration at which effective urease inhibitors” value [7] is listed as “about 1 ppm by weight”.
